Experimental data as given in ChEMBL document CHEMBL3046230, “Diversity and antifeedant activity of diterpenes from Turkish species of Sideritis” (2000).

Key:
Format in all cases: functional
Spodoptera frugiperda = assay: Antifeedant activity against Spodoptera frugiperda (fall armyworm) assessed as feeding index at 100 ppm after 18 hr relative to control
Spodoptera littoralis [1] = assay: Antifeedant activity against Spodoptera littoralis assessed as feeding index at 100 ppm after 18 hr relative to control
Spodoptera littoralis [2] = assay: Phagostimulant activity against Spodoptera littoralis assessed as feeding index at 100 ppm after 18 hr relative to control

Row | SMILES | AFI (Spodoptera frugiperda) [%] | AFI (Spodoptera littoralis [1]) [%] | FI (Spodoptera littoralis [2])
1 | C=C1C[C@@]23C[C@@H]1CC[C@H]2[C@]1(C)CC[C@@H](O)[C@](C)(COC(C)=O)[C@@H]1C[C@@H]3O [LINEAROL] | 8 | – | –
2 | CC1=C[C@]23C[C@H]1CC[C@H]2[C@]1(C)CCC[C@](C)(CO)[C@H]1C[C@@H]3O | 13 | 27 | –
3 | CC(=O)OC[C@]1(C)[C@H]2C[C@H](O)[C@]34C=C(C)[C@H](CC[C@H]3[C@]2(C)CC[C@H]1O)C4 | 12 | – | –
4 | C[C@]1(CO)CCC[C@]2(C)[C@H]1C[C@H](O)[C@@]13C[C@@H](CC[C@@H]21)[C@]1(C)O[C@@H]13 [SIDEROXOL] | 54 | 9 | –
5 | C=C1C[C@]23C[C@H]1CC[C@H]2[C@]1(C)CC[C@@H](O)[C@](C)(CO)[C@H]1C[C@@H]3O | 21 | – | 52
